Converted amounts (≈) assume the structure as drawn. Values belong to the molecule of their own block, whether it stands above or below them.
Key:
physchem [1] = conditions: octanol/water
Description: Lipophilicity, log D of the compound

in vivo [2] = conditions: dog, po, 13 mg/kg
Description: Cmax in dog at 13 mg/kg, po

in vivo [3] = conditions: mouse, po, 5 mg/kg
Description: Half life in mouse at 5 mg/kg, po

in vivo [4] = conditions: mouse, po, 5 mg/kg; remark: listed apart in the source
Description: Cmax in mouse at 5 mg/kg, po

in vitro [5] = conditions: dog, plasma
Description: Fraction unbound in dog plasma

in vivo [6] = conditions: rat, po, 5 mg/kg
Description: Cmax in rat at 5 mg/kg, po

in vivo [7] = conditions: rat, iv, 2 mg/kg
Description: Half life in rat at 2 mg/kg, iv

in vivo [8] = conditions: mouse, iv, 2 mg/kg
Description: Half life in mouse at 2 mg/kg, iv

in vivo [9] = conditions: dog, iv, 2 mg/kg
Description: Half life in dog at 2 mg/kg, iv

in vivo [10] = conditions: dog, iv, 2 mg/kg; remark: listed apart in the source
Description: Volume of distribution at steady state in dog at 2 mg/kg, iv and 13 mg/kg, po

in vivo [11] = conditions: mouse, po, 5 mg/kg; remark: listed apart in the source
Description: Oral bioavailability in mouse at 5 mg/kg

in vivo [12] = conditions: dog, po, 13 mg/kg; remark: listed apart in the source
Description: Half life in dog at 13 mg/kg, po

in vitro [13] = conditions: human, plasma
Description: Fraction unbound in human plasma

in vivo [14] = conditions: rat, po, 5 mg/kg; remark: listed apart in the source
Description: Oral bioavailability in rat at 5 mg/kg

in vitro [15] = conditions: dog, MDCK
Description: Apparent permeability across apical to basolateral side in dog MDCK cells at 10 uM

in vivo [16] = conditions: dog, iv, 2 mg/kg; remark: listed apart in the source
in vivo [17] = conditions: dog, po, 13 mg/kg; remark: listed apart in the source
Description: Oral bioavailability in dog at 13 mg/kg

in vivo [18] = conditions: rat, plasma, iv, 2 mg/kg
in vivo [19] = conditions: mouse, plasma, iv, 2 mg/kg
in vitro [20] = conditions: rat, plasma
Description: Fraction unbound in rat plasma

in vitro [21] = conditions: mouse, plasma
Description: Fraction unbound in mouse plasma

in vivo [22] = conditions: rat, iv, 2 mg/kg; remark: listed apart in the source
Description: Volume of distribution at steady state in rat at 2 mg/kg, iv and 5 mg/kg, po

in vitro [23] = conditions: human, Caco-2
physchem [24] = assay: physchem
Description: Solubility of the compound

in vivo [25] = conditions: mouse, iv, 2 mg/kg; remark: listed apart in the source
Description: Volume of distribution at steady state in mouse at 2 mg/kg, iv and 5 mg/kg, po

in vivo [26] = conditions: rat, po, 5 mg/kg; remark: listed apart in the source
Description: Half life in rat at 5 mg/kg, po

SMILES: CO[C@@H]1CN(Cc2ccc(C(F)(F)F)cc2)CC[C@@H]1N(C)C(=O)Cc1ccc(-n2cnnn2)cc1
- logD (physchem [1]): 3.1

SMILES: CN(C(=O)Cc1ccc(-n2cnnn2)cc1)C1CCN(Cc2ccc(C(F)(F)F)cc2)CC1
- Cmax (in vivo [2]): 6.4 µM
- half-life (in vivo [3]): 144 min
- Cmax (in vivo [4]): 2200 nM
- fraction unbound (in vitro [5]): 0.068
- Cmax (in vivo [6]): 2400 nM
- half-life (in vivo [7]): 168 min
- half-life (in vivo [8]): 132 min
- half-life (in vivo [9]): 1200 min
- Vd (in vivo [10]): 2.3 L/kg
- bioavailability (in vivo [11]): 64%
- half-life (in vivo [12]): 1080 min
- fraction unbound (in vitro [13]): 0.076
- bioavailability (in vivo [14]): 66%
- Papp A→B at 10 µM (in vitro [15]): 17 ×10⁻⁶ cm/s
- clearance (in vivo [16]): 1.3 mL/min/kg
- bioavailability (in vivo [17]): 35%
- clearance (in vivo [18]): 6.8 mL/min/kg
- clearance (in vivo [19]): 12 mL/min/kg
- fraction unbound (in vitro [20]): 0.081
- logD (physchem [1]): 3
- fraction unbound (in vitro [21]): 0.099
- Vd (in vivo [22]): 1.4 L/kg
- Papp A→B at 10 µM (in vitro [23]): 57 ×10⁻⁶ cm/s
- solubility (physchem [24]): 18 µM (≈ 8.25 µg/mL)
- Vd (in vivo [25]): 2 L/kg
- half-life (in vivo [26]): 168 min

SMILES: CN(C(=O)Cc1ccc(-n2cnnn2)cc1)[C@@H]1CCN(Cc2ccc(C(F)(F)F)cc2)C[C@@H]1F
- logD (physchem [1]): 3.3

SMILES: CN(C(=O)Cc1ccc(-n2cnnn2)cc1)[C@H]1CCN(Cc2ccc(C(F)(F)F)cc2)C[C@H]1F
- logD (physchem [1]): 3.3

The next lines start with the values.

- logD (physchem [1]): 3
SMILES: CO[C@H]1CN(Cc2ccc(C(F)(F)F)cc2)CC[C@H]1N(C)C(=O)Cc1ccc(-n2cnnn2)cc1

- logD (physchem [1]): 2.1
SMILES: Cc1nc(-c2ccc(CN3CCC(N(C)C(=O)Cc4ccc(-n5cnnn5)cc4)CC3)cc2)no1

Source: ChEMBL document CHEMBL2010696, “Discovery, optimisation and in vivo evaluation of novel GPR119 agonists” (Bioorg Med Chem Lett, 2011)
